# What was measured:
# [1] = system: Enterobacter cloacae ATCC 13 047; experiment: serial dilution test in microtiter system (bacteriostasis, MIC); assay type: cell-based; conditions: ATCC13, liquid medium, 18 to 20 h at 37°C, read-out: MHK-Werte Eb. cloacae 13 047
# Method: (§1) Für die Untersuchungen wurde die Methode des Reihenverdünnungstestes im Mikrotitersystem angewandt. Die Prüfung der Substanzen auf Bakteriostase erfolgte in flüssigem Medium. Es wurde die Bakteriostasewirkung bei folgenden Konzentrationen untersucht.
# (§2) Es wurde ein Nährboden folgender Zusammensetzung benutzt: 10 g Pepton, 8 g Fleischextrakt-Oxoid, 3 g Natriumschlorid, 2 g sek. Natriumphosphat werden mit dest. Wasser auf 1000 ml aufgefüllt (pH 7,2-7,4). Lediglich bei der Testung gegen Streptokokken wurde 1% Glucose hinzugefügt. Das Alter der Primärkulturen betrug etwa 20 Stunden. Die Einstellung der Keimsuspension erfolgte am Photometer (nach "Eppendorf") (Reagenzglas-Durchmesser 14 mm, Filter 546 nm) anhand der Trübung einer Bariumsulfat-Vergleichssuspension, die durch eine Bariumsulfat-Aufschwemmung erzeugt wurde, welche durch die Zugabe von 3,0 ml 1%ige Bariumchloridlösung in 97 ml 1%ige Schwefelsäure entstand. Nach der Einstellung wurden Streptococcus Aronson im Verhältnis 1:15 und die übrigen Testkeime im Verhältnis 1:1500 mit einer Kochsalzlösung weiter verdünnt.
# (§3) 16 mg der jeweiligen Substanz wurden in 10 ml-Meßkolben eingewogen und mit dem Lösungsmittel bis zur Marke aufgefüllt. Die weitere Verdünnungsreihe wurde mit destilliertem Wasser oder dem jeweiligen Lösungsmittel hergestellt.
# (§4) Die Vertiefungen der Mikrotiterplatten wurden mit 0,2 ml Nährmedium, 0,01 ml der entsprechenden Substanzverdünnung und mit einem Tropfen Keimsuspension (0,01 ml) beschickt und 18 bis 20 Stunden bei 37°C bebrütet. Eine Lösungsmittelkontrolle wurde stets mitgeführt.
# (§5) Die Ablesung wurde makroskopisch vorgenommen, wobei die jeweilige Grenkonzentration (= niedrigste noch bakteriostatisch wirksame Konzentration) ermittelt wurde.
# (§6) Als Testorganismen wurden benützt: - Staphylococcus aureus SG 511, Escherichia coli ATCC 11 775, Pseudomonas aeruginosa Hamburgensis und Walter, Serratia marcescens ATCC 13 880, Klebsiella pneumoniae ATCC 10 031 und BC 6, Proteus mirabilis Hamburgensis, Proteus rettgeri BC 7 und Enterobacter cloacae ATCC 13 047.
# (§7) In der folgenden Tabelle 2 sind die ermittelten minimalen Hemmkonzentrationen (MIC) für typische Vertreter der erfindungsgemäßen Verbindungen aufgeführt, wobei sich die Ziffern auf die Penicilline der Tabelle 1 Seite 18 beziehen.
# [2] = system: Serratia marcescens ATCC 13 880; experiment: as above; assay type: cell-based; conditions: ATCC13, liquid medium, 18 to 20 h at 37°C, read-out: MHK-Werte Serr. marcesc. ATCC 13 880
# Method: as §1, §2, §3, §4, §5, §6, §7
# [3] = system: Pseudomonas aeruginosa Walter; experiment: as above; assay type: cell-based; conditions: liquid medium, 18 to 20 h at 37°C, read-out: MHK-Werte Pseud. aerug. Walter
# Method: as §1, §2, §3, §4, §5, §6, §7
# [4] = system: Staphylococcus aureus SG 511; experiment: as above; assay type: cell-based; conditions: SG511, liquid medium, 18 to 20 h at 37°C, read-out: MHK-Werte Staph. aureus SG 511
# Method: as §1, §2, §3, §4, §5, §6, §7
# [5] = system: Proteus mirabilis Hamburgensis; experiment: as above; assay type: cell-based; conditions: liquid medium, 18 to 20 h at 37°C, read-out: MHK-Werte Prot. mir. Hbg.
# Method: as §1, §2, §3, §4, §5, §6, §7
# [6] = system: Escherichia coli ATCC 11 775; experiment: as above; assay type: cell-based; conditions: ATCC11, liquid medium, 18 to 20 h at 37°C, read-out: MHK-Werte E.coli ATCC 11 755
# Method: as §1, §2, §3, §4, §5, §6, §7
# Proteus rettgeri BC 7 = experiment: as above; assay type: cell-based; conditions: Providencia rettgeri, BC7; liquid medium, 18 to 20 h at 37°C; read-out: MHK-Werte Prot. rettg. BC 7
# Method: as §1, §2, §3, §4, §5, §6, §7
# [7] = system: Klebsiella pneumoniae ATCC 10 031; experiment: as above; assay type: cell-based; conditions: ATCC10, liquid medium, 18 to 20 h at 37°C, read-out: MHK-Werte Kl. pneum. ATCC 10 031
# Method: as §1, §2, §3, §4, §5, §6, §7
# [8] = system: Klebsiella pneumoniae BC 6; experiment: as above; assay type: cell-based; conditions: BC6, liquid medium, 18 to 20 h at 37°C, read-out: MHK-Werte Kl. pneum. BC 6
# Method: as §1, §2, §3, §4, §5, §6, §7
# [9] = system: Pseudomonas aeruginosa Hamburgensis; experiment: as above; assay type: cell-based; conditions: liquid medium, 18 to 20 h at 37°C, read-out: MHK-Werte Pseud. aerug. Hbg.
# Method: as §1, §2, §3, §4, §5, §6, §7
# [10] = system: Pseudomonas aeruginosa Walter; experiment: experimental intraperitoneal infection in mice, ED50 (survival); assay type: in vivo, Mäuse; conditions: sc, 168 h, female NMRI mice, i.p. infection, s.c. application, treated three times, 7 days observation, read-out: ED50 Pseud. aerug. Walter
# Method: (§8) Eine Reihe der erfindungsgemäßen Verbindungen wurde in vivo bei experimentellen Infektionen an Mäusen untersucht. Man verwendete als pathogene Bakterien E.coli ATCC 11 775 und Pseudomonas aeruginosa Walter. Es wurde eine intraperitoneale Infektion mit 0,2 ml einer 5%igen Mucinsuspension der Bakterien gesetzt. Dies entspricht etwa 2x10^6 Keime E.coli bzw. 8x10^5 Keime Pseudomonas/Maus. Weibliche Mäuse vom Stamm NMRI wurden in Gruppen von jeweils 10 Tieren aufgeteilt, zwei Gruppen blieben unbehandelt, die restlichen Gruppen wurden mit verschiedenen Dosen der jeweiligen erfindungsgemäßen Penicilline zur Bestimmung der ED50 (Dosis, bei der 50 % der Tiere überleben) behandelt. Bei der E.coli-Infektion wurde einmal therapiert. Bei der Pseudomonas-Infektion wurde dreimal behandelt.
# (§9) Der Beobachtungszeitraum betrug in beiden Fällen 7 Tage. Die Ergebnisse dieser Teste mit repräsentativen Vertretern der erfindungsgemäßen Penicilline sind in der Tabelle 3 dargestellt.
# E.coli ATCC 11 775 = experiment: as above; assay type: in vivo, Mäuse; conditions: Escherichia coli, ATCC 11 / ATCC 1175, sc, 168 h; female NMRI mice, i.p. infection, s.c. application, treated once, 7 days observation
# Method: as §8, §9
SMILES,MIC [1],MIC [2],MIC [3],MIC [4],MIC [5],MIC [6],MIC (Proteus rettgeri BC 7),MIC [7],MIC [8],MIC [9],ED50 [10],ED50 (E.coli ATCC 11 775)
"CC1(C)S[C@@H]2[C@H](NC(=O)[C@H](NC(=O)N3CCNC3=O)c3ccccc3)C(=O)N2[C@H]1C(=O)O [A, 6-{D-α'-[(2-Oxo-imidazolidin-1-yl)-carbonylamino]-4-phenylacetamido}-penicillansäure-Natriumsalz, reference compound]",32 µg/mL,2 µg/mL,8 µg/mL,0.5 µg/mL,0.5 µg/mL,16 µg/mL,2 µg/mL,32 µg/mL,32 µg/mL,8 µg/mL,225 mg/kg,> 100 mg/kg
CC1(C)SC2C(NC(=O)C(NC(=O)Nc3cnc(Nc4ccc(NC(N)=O)cc4)nc3O)c3ccc(O)cc3)C(=O)N2C1C(=O)O (centres unmarked) [Verbindung 43],4 µg/mL,0.5 µg/mL,1 µg/mL,0.5 µg/mL,0.06 µg/mL,0.5 µg/mL,1 µg/mL,8 µg/mL,8 µg/mL,1 µg/mL,–,5.6 mg/kg
CC1(C)S[C@@H]2[C@H](NC(=O)C(NC(=O)Nc3cnc(NCc4ccc(S(N)(=O)=O)cc4)nc3O)c3ccc(O)cc3)C(=O)N2[C@H]1C(=O)O (some centres unmarked) [Verbindung 64],2 µg/mL,0.25 µg/mL,1 µg/mL,0.25 µg/mL,0.06 µg/mL,0.12 µg/mL,0.5 µg/mL,4 µg/mL,4 µg/mL,2 µg/mL,12.4 mg/kg,2.4 mg/kg
C[S+]([O-])c1ccc(Nc2ncc(NC(=O)NC(C(=O)NC3C(=O)N4C3SC(C)(C)C4C(=O)O)c3ccccc3)c(O)n2)cc1 (centres unmarked) [Verbindung 21],2 µg/mL,0.25 µg/mL,2 µg/mL,0.25 µg/mL,0.12 µg/mL,0.25 µg/mL,0.5 µg/mL,2 µg/mL,1 µg/mL,2 µg/mL,6.6 mg/kg,3 mg/kg
CC1(C)S[C@@H]2[C@H](NC(=O)[C@H](NC(=O)Nc3cnc(Nc4ccc(S(N)(=O)=O)cc4)nc3O)c3ccc(O)c(O)c3)C(=O)N2[C@H]1C(=O)O [Verbindung 3],4 µg/mL,4 µg/mL,4 µg/mL,0.5 µg/mL,0.5 µg/mL,1 µg/mL,1 µg/mL,8 µg/mL,8 µg/mL,4 µg/mL,10.4 mg/kg,3.7 mg/kg
"CC1(C)S[C@@H]2[C@H](NC(=O)[C@H](NC(=O)N3CCN(S(C)(=O)=O)C3=O)c3ccccc3)C(=O)N2[C@H]1C(=O)O [B, Mezlocillin, reference compound]",4 µg/mL,0.5 µg/mL,32 µg/mL,0.25 µg/mL,0.25 µg/mL,2 µg/mL,1 µg/mL,4 µg/mL,4 µg/mL,16 µg/mL,–,> 100 mg/kg
CN(C)S(=O)(=O)c1ccc(Nc2ncc(NC(=O)N[C@@H](C(=O)N[C@@H]3C(=O)N4[C@@H]3SC(C)(C)[C@@H]4C(=O)O)c3ccccc3)c(O)n2)cc1 [Verbindung 14],–,–,–,–,–,–,–,–,–,–,8.5 mg/kg,4.2 mg/kg
CC1(C)S[C@@H]2[C@H](NC(=O)C(NC(=O)Nc3cnc(Nc4ccc(C(N)=O)c(O)c4)nc3O)c3ccc(O)cc3)C(=O)N2[C@H]1C(=O)O (some centres unmarked) [Verbindung 50],2 µg/mL,0.25 µg/mL,1 µg/mL,0.5 µg/mL,0.06 µg/mL,0.25 µg/mL,0.5 µg/mL,2 µg/mL,2 µg/mL,1 µg/mL,–,4 mg/kg

# More lines, main results first:
MIC [1],MIC [2],MIC [3],MIC [4],MIC [5],MIC [6],MIC (Proteus rettgeri BC 7),MIC [7],MIC [8],MIC [9],SMILES,ED50 [10],ED50 (E.coli ATCC 11 775)
0.5 µg/mL,0.12 µg/mL,1 µg/mL,0.25 µg/mL,0.06 µg/mL,0.12 µg/mL,0.5 µg/mL,1 µg/mL,1 µg/mL,1 µg/mL,"CNS(=O)(=O)c1ccc(Nc2ncc(NC(=O)N[C@@H](C(=O)N[C@@H]3C(=O)N4[C@@H]3SC(C)(C)[C@@H]4C(=O)O)c3ccc(O)cc3)c(O)n2)cc1 [Verbindung 7, D-α-[3-(4-Hydroxy-2-p-methylaminosulfonylanilino-5-pyrimidinyl)-ureido]-p-hydroxy-benzylpenicillin-Natrium]",6.6 mg/kg,3.4 mg/kg
1 µg/mL,0.12 µg/mL,0.5 µg/mL,0.12 µg/mL,0.06 µg/mL,0.12 µg/mL,0.25 µg/mL,0.5 µg/mL,1 µg/mL,1 µg/mL,CC1(C)SC2C(NC(=O)C(NC(=O)Nc3cnc(Nc4ccc(S(N)(=O)=O)c(O)c4)nc3O)c3ccccc3)C(=O)N2C1C(=O)O (centres unmarked) [Verbindung 45],5.2 mg/kg,3.2 mg/kg
0.5 µg/mL,0.12 µg/mL,2 µg/mL,0.25 µg/mL,0.06 µg/mL,0.12 µg/mL,0.25 µg/mL,0.5 µg/mL,0.5 µg/mL,2 µg/mL,CC1(C)SC2C(NC(=O)C(NC(=O)Nc3cnc(Nc4ccc([N+](=O)[O-])cc4)nc3O)c3ccccc3)C(=O)N2C1C(=O)O (centres unmarked) [Verbindung 41],–,8.3 mg/kg
0.5 µg/mL,0.12 µg/mL,0.5 µg/mL,0.25 µg/mL,0.03 µg/mL,0.12 µg/mL,0.25 µg/mL,1 µg/mL,1 µg/mL,0.5 µg/mL,CC1(C)SC2C(NC(=O)C(NC(=O)Nc3cnc(Nc4ccc(S(N)(=O)=O)c(O)c4)nc3O)c3ccc(O)cc3)C(=O)N2C1C(=O)O (centres unmarked) [Verbindung 44],3.6 mg/kg,2.1 mg/kg
2 µg/mL,0.25 µg/mL,2 µg/mL,0.25 µg/mL,0.06 µg/mL,0.25 µg/mL,0.25 µg/mL,4 µg/mL,2 µg/mL,1 µg/mL,CC1(C)SC2C(NC(=O)C(NC(=O)Nc3cnc(Nc4ccc(C(N)=O)cc4)nc3O)c3ccccc3)C(=O)N2C1C(=O)O (centres unmarked) [Verbindung 34],–,3.2 mg/kg
1 µg/mL,1 µg/mL,1 µg/mL,0.25 µg/mL,0.06 µg/mL,0.25 µg/mL,0.5 µg/mL,4 µg/mL,8 µg/mL,2 µg/mL,CC1(C)S[C@@H]2[C@H](NC(=O)C(NC(=O)Nc3cnc(NCc4ccc(O)cc4)nc3O)c3ccc(O)cc3)C(=O)N2[C@H]1C(=O)O (some centres unmarked) [Verbindung 57],–,7.2 mg/kg
